Laboratory results: US7425631B2 (Amgen Inc., priority 2003, dated 2008)

molecular target: T1, human B1 receptor (Homo sapiens, UniProt P46663); test: In vitro assay of human B1 receptor function using calcium flux (aequorin luminescence); assay type: cell-based; details: CHO D-/hB1/Aequorin cells, agonist 20 nM des-Arg10-Kallidin (EC80); read-out: binding IC50's to hB1 receptor function
T1 construct: expressed in transfected cells
T1 sequence (P46663 1-353): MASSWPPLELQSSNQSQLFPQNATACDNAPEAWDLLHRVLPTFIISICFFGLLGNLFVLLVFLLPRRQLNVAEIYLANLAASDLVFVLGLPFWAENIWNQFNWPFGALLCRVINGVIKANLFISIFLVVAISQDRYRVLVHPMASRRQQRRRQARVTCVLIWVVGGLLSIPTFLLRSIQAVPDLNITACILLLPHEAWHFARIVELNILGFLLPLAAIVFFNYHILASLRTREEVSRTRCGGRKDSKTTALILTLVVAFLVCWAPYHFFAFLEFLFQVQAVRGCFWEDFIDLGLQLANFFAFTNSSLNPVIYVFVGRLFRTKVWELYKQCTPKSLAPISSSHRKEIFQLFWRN
Method: Activation of the Gq linked B1 receptor results in an increase in intracellular calcium. […] Aequorin is a 21-kDa photoprotein that forms a bioluminescent complex when linked to the chromophore cofactor coelenterazine.
Following coelenterazine incubation, an automated flash-luminometer platform was used to dispense the B1 antagonist compounds (dissolved in DMSO and diluted with buffer to the desired concentration (final DMSO concentration <1% DMSO)) to the cell plate, a CCD camera situated underneath the cell plate took 12 images of the cell plate at 5 second intervals to determine if there was any agonist activity with the compounds. The hB1 agonist, des-Arg10-Kallidin, was added to the cell plate and another 12 images were recorded to determine the IC50 of the antagonist(s).

| SMILES | IC50 |
| --- | --- |
| CC(C)NCc1ccc2c(c1)CCC[C@H]2NC(=O)C[C@@H](NS(=O)(=O)c1ccc(Cl)c(Cl)c1)c1ccccc1 | < 10 nM |
| O=C(C[C@@H](NS(=O)(=O)c1cccc(C(F)(F)F)c1)c1ccccc1)N[C@@H]1CCOc2cc(CN3CCCCC3)ccc21 [Example 166, (3R)-3-Phenyl-N-((4R)-7-(1-piperidinylmethyl)-3,4-dihydro-2H-chromen-4-yl)-3-(((3-(trifluoromethyl)phenyl)sulfonyl)amino)propanamide] | < 10 nM |
| O=C(C[C@@H](NS(=O)(=O)c1ccc(Cl)c(Cl)c1)c1ccccc1)N[C@@H]1CCOc2cc(CN3CCCCC3)ccc21 [Example 168, (3R)-3-(((3,4-Dichlorophenyl)sulfonyl)amino)-3-phenyl-N-((4R)-7-(1-piperidinylmethyl)-3,4-dihydro-2H-chromen-4-yl)propanamide] | < 10 nM |
| O=C(C[C@@H](NS(=O)(=O)c1ccc(Cl)c(Cl)c1)c1ccccc1)N[C@@H]1CCOc2cc(CN3CCOCC3)ccc21 [Example 169, (3R)-3-(((3,4-Dichlorophenyl)sulfonyl)amino)-N-((4R)-7-(4-morpholinylmethyl)-3,4-dihydro-2H-chromen-4-yl)-3-phenylpropanamide] | < 10 nM |
| CC(C)(C)NCc1ccc2c(c1)OCC[C@H]2NC(=O)C[C@@H](NS(=O)(=O)c1cccc(C(F)(F)F)c1)c1ccccc1 [Example 170, (3R)-N-((4R)-7-(((1,1-Dimethylethyl)amino)methyl)-3,4-dihydro-2H-chromen-4-yl)-3-phenyl-3-(((3-(trifluoromethyl)phenyl)sulfonyl)amino)propanamide] | < 10 nM |
| CN1c2cc(CN3CCCCC3)ccc2[C@@H](NC(=O)C[C@@H](NS(=O)(=O)c2ccc3ccccc3c2)c2ccccc2)CS1(=O)=O [Example 175, (3R)-N-((4R)-1-Methyl-2,2-dioxido-7-(1-piperidinylmethyl)-3,4-dihydro-1H-2,1-benzothiazin-4-yl)-3-((2-naphthalenylsulfonyl)amino)-3-phenylpropanamide] | < 10 nM |
| O=C(C[C@@H](NS(=O)(=O)c1ccc2ccccc2c1)c1ccccc1)N[C@H]1CCc2cc(CN3CCCCC3)ccc21 [Example 176, (3R)-3-((2-Naphthalenylsulfonyl)amino)-3-phenyl-N-((1S)-5-(1-piperidinylmethyl)-2,3-dihydro-1H-inden-1-yl)propanamide] | < 10 nM |
| O=C(C[C@@H](NS(=O)(=O)c1cccc(C(F)(F)F)c1)c1ccccc1)N[C@@H]1CCOc2cc(CN3CCC(F)CC3)ccc21 [Example 185, (3R)-N-((4R)-7-((4-Fluoro-1-piperidinyl)methyl)-3,4-dihydro-2H-chromen-4-yl)-3-phenyl-3-(((3-(trifluoromethyl)phenyl)sulfonyl)amino)propanamide] | < 10 nM |
| O=C(C[C@@H](NS(=O)(=O)c1cccc(C(F)(F)F)c1)c1ccccc1)N[C@@H]1CCOc2cc(CN3CCC(F)(F)CC3)ccc21 [Example 198, (3R)-N-((4R)-7-((4,4-Difluoro-1-piperidinyl)methyl)-3,4-dihydro-2H-chromen-4-yl)-3-phenyl-3-(((3-(trifluoromethyl)phenyl)sulfonyl)amino)propanamide] | < 10 nM |
| C=C(CN1CCCCC1)c1ccc2c(c1)CCC[C@H]2NC(=O)C[C@@H](NS(=O)(=O)c1ccc(Cl)c(Cl)c1)c1ccccc1 [Example 218d, (3R)-3-(((3,4-dichlorophenyl)sulfonyl)amino)-3-phenyl-N-((1R)-6-(1-(1-piperidinylmethyl)ethenyl)-1,2,3,4-tetrahydro-1-naphthalenyl)propanamide] | < 10 nM |
| C=C(CN1CC[C@H](O)C1)c1ccc2c(c1)CCC[C@H]2NC(=O)C[C@@H](NS(=O)(=O)c1cccc(C(F)(F)F)c1)c1ccccc1 [Example 218j, (3R)-N-((1R)-6-(1-(((3S)-3-hydroxy-1-pyrrolidinyl)methyl)ethenyl)-1,2,3,4-tetrahydro-1-naphthalenyl)-3-phenyl-3-(((3-(trifluoromethyl)phenyl)sulfonyl)amino)propanamide] | < 10 nM |
| C=C(CN1CCCC1)c1ccc2c(c1)CCC[C@H]2NC(=O)C[C@@H](NS(=O)(=O)c1cccc(C(F)(F)F)c1)c1ccccc1 [Example 218q, (3R)-3-phenyl-N-((1R)-6-(1-(1-pyrrolidinylmethyl)ethenyl)-1,2,3,4-tetrahydro-1-naphthalenyl)-3-(((3-(trifluoromethyl)phenyl)sulfonyl)amino)propanamide] | < 10 nM |
| C=C(CN1CCCCC1)c1ccc2c(c1)CCC[C@H]2NC(=O)C[C@@H](NS(=O)(=O)c1cccc(C(F)(F)F)c1)c1ccccc1 [Example 218r, (3R)-3-phenyl-N-((1R)-6-(1-(1-piperidinylmethyl)ethenyl)-1,2,3,4-tetrahydro-1-naphthalenyl)-3-(((3-(trifluoromethyl)phenyl)sulfonyl)amino)propanamide] | < 10 nM |

Now from value to molecule:

| IC50 | SMILES |
| --- | --- |
| < 10 nM | O=C(CC(NS(=O)(=O)c1cccc(C(F)(F)F)c1)c1ccc(F)cc1)N[C@@H]1CCCc2cc(CN3CCCCC3)ccc21 (stereo in doubt) [ba, (3S)-3-(4-fluorophenyl)-N-((1R)-6-(1-piperidinylmethyl)-1,2,3,4-tetrahydro-1-naphthalenyl)-3-(((3-(trifluoromethyl)phenyl)sulfonyl)amino)propanamide] |
| < 10 nM | CC(C)CNC(C)c1ccc2c(c1)CCC[C@H]2NC(=O)C[C@@H](NS(=O)(=O)c1cccc(C(F)(F)F)c1)c1ccccc1 (stereo partly drawn) [Example 220a, (3R)-3-((hydroxy(oxido)(3-(trifluoromethyl)phenyl)-lambda-4—sulfanyl)amino)-N-((1R)-6-((1R)-1-((2-methylpropyl)amino)ethyl)-1,2,3,4-tetrahydro-1-naphthalenyl)-3-phenylpropanamide] |
| < 10 nM | CC(C)CNC(C)c1ccc2c(c1)CCC[C@H]2NC(=O)C[C@@H](NS(=O)(=O)c1ccc2ccccc2c1)c1ccccc1 (stereo partly drawn) [Example 220g] |
| < 10 nM | CC(C)(C)NCc1ccc2c(c1)CCC[C@H]2NC(=O)C[C@H](NS(=O)(=O)c1cccc(C(F)(F)F)c1)c1ccc(F)cc1 [a, (3S)-N-((1R)-6-(((1,1-dimethylethyl)amino)-methyl)-1,2,3,4-tetrahydro-1-naphthalenyl)-3-(4-fluorophenyl)-3-(((3-(trifluoromethyl)phenyl)-sulfonyl)amino)propanamide] |
| < 10 nM | CN([C@H](CC(=O)N[C@@H]1CCCc2cc(CN3CCCCC3)ccc21)c1ccccc1)S(=O)(=O)c1cccc(C(F)(F)F)c1 [aa, (3R)-3-(methyl((3-(trifluoromethyl)phenyl)sulfonyl)amino)-3-phenyl-N-((1R)-6-(1-piperidinylmethyl)-1,2,3,4-tetrahydro-1-naphthalenyl)propanamide] |
| < 10 nM | Cc1c(S(=O)(=O)N[C@H](CC(=O)NC2CCCc3cc(CNC(C)(C)C)ccc32)c2ccccc2)sc2ccc(Cl)cc12 (stereo partly drawn) [ad, (3R)-3-(((5-chloro-3-methyl-1-benzothien-2-yl)sulfonyl)amino)-N-(6-(((1,1-dimethylethyl)amino)methyl)-1,2,3,4-tetrahydro-1-naphthalenyl)-3-phenylpropanamide] |
| < 10 nM | Cc1c(S(=O)(=O)N[C@H](CC(=O)NC2CCCc3cc(CN4CCCCC4)ccc32)c2ccccc2)sc2ccc(Cl)cc12 (stereo partly drawn) [ae, (3R)-3-(((5-chloro-3-methyl-1-benzothien-2-yl)sulfonyl)amino)-3-phenyl-N-(6-(1-piperidinylmethyl)-1,2,3,4-tetrahydro-1-naphthalenyl)propanamide] |
| < 10 nM | O=C(C[C@@H](NS(=O)(=O)c1cccc(C(F)(F)F)c1)c1ccccc1)N[C@@H]1CCCc2cc(CN3CC=CCC3)ccc21 [am, (3R)-N-((1R)-6-(3,6-dihydro-1(2H)-pyridinylmethyl)-1,2,3,4-tetrahydro-1-naphthalenyl)-3-phenyl-3-(((3-(trifluoromethyl)phenyl)sulfonyl)amino)propanamide] |
| < 10 nM | COc1ccc([C@@H](CC(=O)N[C@@H]2CCCc3cc(CN4CCCCC4)ccc32)NS(=O)(=O)c2cc3cc(Cl)ccc3s2)cn1 [aw, (3R)-3-(((5-chloro-1-benzothien-2-yl)sulfonyl)amino)-3-(6-(methyloxy)-3-pyridinyl)-N-((1R)-6-(1-piperidinylmethyl)-1,2,3,4-tetrahydro-1-naphthalenyl)propanamide] |
| < 10 nM | COc1ccc([C@@H](CC(=O)N[C@@H]2CCCc3cc(CN4CCCCC4)ccc32)NS(=O)(=O)c2cccc(C(F)(F)F)c2)cn1 [ay, (3R)-3-(6-(methyloxy)-3-pyridinyl)-N-((1R)-6-(1-piperidinylmethyl)-1,2,3,4-tetrahydro-1-naphthalenyl)-3-(((3-(trifluoromethyl)phenyl)sulfonyl)amino)propanamide] |
| < 10 nM | CC(C)CNCc1ccc2c(c1)CCC[C@H]2NC(=O)C[C@@H](NS(=O)(=O)c1ccc(Cl)c(Cl)c1)c1ccccc1 [bg, (3R)-3-(((3,4-dichlorophenyl)sulfonyl)amino)-N-((1R)-6-(((2-methylpropyl)amino)methyl)-1,2,3,4-tetrahydro-1-naphthalenyl)-3-phenylpropanamide] |
